One test addresses T1, HLA-A0203 (Homo sapiens, UniProt P04439, A173T/D140Y/D185E/D98H/E277Q/G131W/G231S/I119V/I121R/I166T/I218V/L180W/L300P/L318F/N151K/N90K/P208A/P217A/Q86G/Q94H/R138H/R169H/T345S).
T1 construct: expressed in transfected cells; host or cells: HMy2.CIR
The test can be described thus: cell-based. Particulars: for inhibition at 5 µM: read-out: 5-μM inhibition (%); for inhibition at 15 µM: read-out: 15-μM inhibition (%). The format is binding.

The target of the next test is T2, HLA-A0201 (Homo sapiens, UniProt P04439, D140Y/D185E/D98H/E176V/E277Q/G131W/G231S/I119V/I121R/I166T/I218V/L300P/L318F/N151K/N90K/P208A/P217A/Q86G/Q94H/R138H/R169H/T345S).
T2 construct: expressed in transfected cells; host or cells: HMy2.CIR
The test can be described thus: cell-based. The class given is binding. Particulars: for inhibition at 5 µM: read-out: 5-μM inhibition (%); for inhibition at 15 µM: read-out: 15-μM inhibition (%).

Another test deals with T3, HLA-A3101 (Homo sapiens, UniProt P04439, A270S/D185E/E176V/E277Q/F33T/G231S/G80R/H175R/I121M/I218V/I322F/K168Q/L300P/L318F/M331R/P217A/Q94H/R138Q/T323A/T345S/T97I/V358M).
T3 construct: expressed in transfected cells; host or cells: HMy2.CIR
In words: Peptide competitive binding assay, HMy2.CIR cells expressing A3101. As to conditions: for inhibition at 5 µM: peptide 5 μM vs FITC-labeled reference peptide 300 nM; for inhibition at 5 µM / inhibition at 15 µM: 24 h, 4°C, flow cytometry; for inhibition at 15 µM: peptide 15 μM vs FITC-labeled reference peptide 300 nM; for IC50: read-out: Affinity.

A further test addresses HLA-A1102 (Homo sapiens, UniProt P04439, A114D/D185E/E176A/E43K/F33Y/L180Q/S129P/T187R). In words: cell-based. The class given is binding. As to conditions: 24 h; for inhibition at 5 µM: read-out: 5-μM inhibition (%); for inhibition at 15 µM: read-out: 15-μM inhibition (%).
The next test addresses HLA-A3303 (Homo sapiens, UniProt P04439, A270S/D185E/E176V/E277Q/E87N/F33T/G231S/H175R/I121M/I218V/I322F/K168Q/L300P/L318F/M331R/P217A/Q86R/Q94H/R138Q/T323A/T345S/T97I/V358M). The test can be described thus: Peptide competitive binding assay, HMy2.CIR cells expressing A3303. Particulars: for inhibition at 5 µM: peptide 5 μM vs FITC-labeled reference peptide 300 nM; for inhibition at 5 µM / inhibition at 15 µM: 24 h, 4°C, flow cytometry; for inhibition at 15 µM: peptide 15 μM vs FITC-labeled reference peptide 300 nM; for IC50: read-out: Affinity.

For the next test, the target named is T4, HLA-A1101 (Homo sapiens, UniProt P04439, A114D/D185E/E176A/F33Y/L180Q/S129P/T187R).
T4 construct: expressed in transfected cells; host or cells: HMy2.CIR
In words: cell-based. The format is binding. Particulars: for inhibition at 5 µM / inhibition at 15 µM: 24 h; for inhibition at 5 µM: read-out: 5-μM inhibition (%); for inhibition at 15 µM: read-out: 15-μM inhibition (%).

The mark [1] stands for this setting: A1102, peptide 5 μM vs FITC-labeled reference peptide 300 nM, 4°C, flow cytometry.
The mark [2] stands for this setting: A1102, peptide 15 μM vs FITC-labeled reference peptide 300 nM, 4°C, flow cytometry.
The mark [3] stands for this setting: A0203, peptide 5 μM vs FITC-labeled reference peptide 300 nM, 24 h, 4°C, flow cytometry.
The mark [4] stands for this setting: A0203, peptide 15 μM vs FITC-labeled reference peptide 300 nM, 24 h, 4°C, flow cytometry.
The mark [5] stands for this setting: A0201, peptide 5 μM vs FITC-labeled reference peptide 300 nM, 24 h, 4°C, flow cytometry.
[6] abbreviates: A0201, peptide 15 μM vs FITC-labeled reference peptide 300 nM, 24 h, 4°C, flow cytometry.
Setting [7] is: A3303, class from inhibition at 5 and 15 μM of FITC-labeled reference peptide binding.
[8] abbreviates: A1101, peptide 5 μM vs FITC-labeled reference peptide 300 nM, 4°C, flow cytometry.
Where [9] appears, read: A1101, peptide 15 μM vs FITC-labeled reference peptide 300 nM, 4°C, flow cytometry.

Where two headings read alike, the source gives them in different places. Where no end group is shown, it is not given here.

As a reminder, the inhibition is the drop in the measured response relative to a control, in per cent. With `CC[C@H](C)[C@H](NC(=O)[C@H](CO)NC(=O)[C@@H](NC(=O)[C@@H]1CCCN1C(=O)[C@H](CO)NC(=O)[C@H](Cc1ccc(O)cc1)NC(=O)[C@H](CCSC)NC(=O)[C@@H](N)CCCNC(=N)N)C(C)C)C(=O)N[C@@H](CC(C)C)C(=O)O` [Peptide P9], on HLA-A0203, the IC50 was 5 to 15 µM. Further, at HLA-A0203 (24 h), the inhibition at 5 µM worked out at 0% and the inhibition at 15 µM is 50.1%. At HLA-A0201 (24 h), the inhibition at 5 µM is 0% and the inhibition at 15 µM was 4.54%.

In the case of `CC[C@H](C)[C@H](NC(=O)[C@H](Cc1ccccc1)NC(=O)[C@@H](NC(=O)[C@H](C)N)C(C)C)C(=O)N[C@@H](Cc1c[nH]cn1)C(=O)N[C@@H](CC(N)=O)C(=O)N[C@@H](Cc1ccccc1)C(=O)N[C@@H](CCCCN)C(=O)N[C@@H](CCCNC(=N)N)C(=O)O` [Peptide P41], the inhibition at 5 µM on HLA-A3101 (A3101) was 63.4%; at HLA-A1102, 1.73%; at HLA-A3303 (A3303), 71%; at HLA-A1101, 83.8%. Besides, the inhibition at 15 µM on HLA-A3101 (A3101) came to 96%; at HLA-A1102 it was 21.5%; on HLA-A3303 (A3303) it was 89.8%; on HLA-A1101, 86.8%. In addition, the IC50 on HLA-A3101, at HLA-A3303 and at HLA-A1101 was less than 5 µM in each case.

In the case of AAGTGSSSK [Peptide P86], the “5-μM inhibition (%)” value on HLA-A1102 (setting [1]) came out at 1.04%. In addition, the “15-μM inhibition (%)” value on HLA-A1102 (setting [2]) worked out at 3.12%.

For the compound ALFYKLDIV [Peptide P2], the IC50 on HLA-A0203 and against HLA-A0201 was 5 to 15 µM each time. For the same compound, the inhibition at 5 µM at HLA-A0203 (setting [3]) was determined as 26.1%; at HLA-A0201 (setting [5]), 23.2%. In addition, the results for the inhibition at 15 µM on HLA-A0203 (setting [4]) and at HLA-A0201 (setting [6]) were 61.9% and 70.5%, respectively.

Turning to ALQTGTEEL [Peptide P8], the “5-μM inhibition (%)” value at HLA-A0203 (setting [3]) and on HLA-A0201 (setting [5]) was 0.00% each time. Further, the “15-μM inhibition (%)” value on HLA-A0203 (setting [4]) was 5.56%; at HLA-A0201 (setting [6]) it was 14.68%.

On to ATLWCVHQR [Peptide P34], for which the inhibition at 5 µM at HLA-A1102 (setting [1]) turned out to be 3.12%; at HLA-A3303 (A3303) it was 63.8%; at HLA-A1101 (setting [8]), 44%. Also, the inhibition at 15 µM on HLA-A1102 (setting [2]) was 13.8%; at HLA-A3303 (A3303), 77.2%; on HLA-A1101 (setting [9]) it was 77.8%. Further, the IC50 on HLA-A3303 (setting [7]) was less than 5 µM; at HLA-A1101 (A1101, class from inhibition at 5 and 15 μM of FITC-labeled reference peptide binding, read-out: Affinity) it was 5 to 15 µM.

With FVNTPPLVK [Peptide P44], the figures for the inhibition at 5 µM on HLA-A1102 (setting [1]) and at HLA-A1101 (setting [8]) were 6.01% and 84.5%, respectively. The inhibition at 15 µM on HLA-A1102 (setting [2]) was 26.1%; on HLA-A1101 (setting [9]) it was 92.7%. At HLA-A1101, this compound yielded an IC50 of less than 5 µM.

Take GMLMISSAV [Peptide P70]: at HLA-A0203 (A0203, class from inhibition at 5 and 15 μM of FITC-labeled reference peptide binding, read-out: Affinity), the IC50 was less than 5 µM. Further, the inhibition at 5 µM at HLA-A0203 (setting [3]) stood at 71.4%. Moreover, at HLA-A0203 (setting [4]), the inhibition at 15 µM amounted to 85.5%.

Compound IIFAVLSIV [Peptide P5] had an IC50 at HLA-A0203 of 5 to 15 µM. Moreover, the inhibition at 5 µM on HLA-A0203 (setting [3]) was 31%; at HLA-A0201 (setting [5]), 20.6%. Moreover, the inhibition at 15 µM on HLA-A0203 (setting [4]) stood at 64.6%; on HLA-A0201 (setting [6]), 42.8%.

At HLA-A3101 (A3101), IQNFRVYYR [Peptide P112] displayed an inhibition at 5 µM of 20.1% and an inhibition at 15 µM of 25.7%. Moreover, on HLA-A3303 (A3303), the inhibition at 5 µM turned out to be 48.7% and testing at 15 µM gave an inhibition of 55.1%. For the same compound, at HLA-A3303, the IC50 was in the range of 5 to 15 µM.

For KAREFSSER [Peptide P100], on HLA-A3101 (A3101, class from inhibition at 5 and 15 μM of FITC-labeled reference peptide binding), the IC50 lay in the range of 5 to 15 µM. Further, on HLA-A3101 (A3101), the inhibition at 5 µM was 42.9% and the inhibition at 15 µM came to 95.1%.

Regarding KVLKQVTEK [Peptide P87], the “5-μM inhibition (%)” value on HLA-A1102 (setting [1]) was found to be 5.66%. On HLA-A1102 (setting [2]), the “15-μM inhibition (%)” value turned out to be 16.76%.

Turning to MAHQPLSPR [Peptide P111], the inhibition at 5 µM stood at 4.16% on HLA-A1102 (setting [1]) and 78.2% at HLA-A3303 (A3303). The inhibition at 15 µM amounted to 20.6% on HLA-A1102 (setting [2]) and 89.2% on HLA-A3303 (A3303). Also, the IC50 on HLA-A3303 (setting [7]) is less than 5 µM.

(Values after paper PMC11850406, “Large-scale screening of HIV-1 T-cell epitopes restricted by 12 prevalent HLA-A allotypes in Northeast Asia and universal detection of HIV-1-specific CD8^+ T cells” (Frontiers in Microbiology, 2025).)
